Measured values reported in publication PMC10408569, “Recruitment of hexahydroquinoline as anticancer scaffold targeting inhibition of wild and mutants EGFR (EGFR^WT, EGFR^T790M, and EGFR^L858R)” (Journal of Enzyme Inhibition and Medicinal Chemistry, 2023).

What was measured:
[1] = test system: SNB-19; test: NCI-60 anticancer screening (SRB); format: cell-based; settings: Homo sapiens; SNB-19, CNS cancer; one dose 10 μM; read-out: Growth Inhibition Percentage (GI %)
[2] = test system: LOX IMVI; test: NCI-60 anticancer screening (SRB); format: cell-based; settings: Homo sapiens, melanoma, one dose 10 μM, read-out: Growth Inhibition Percentage (GI %)
[3] = test system: OVCAR-3; test: NCI-60 anticancer screening (SRB); format: cell-based; settings: Homo sapiens; OVCAR-3, ovarian cancer; one dose 10 μM; read-out: Growth Inhibition Percentage (GI %)
[4] = test system: NCI-H522; test: NCI-60 anticancer screening (SRB); format: cell-based; settings: Homo sapiens; NCI-H522, NSC lung cancer; one dose 10 μM; read-out: Growth Inhibition Percentage (GI %)
[5] = test system: HL-60(TB); test: NCI-60 anticancer screening (SRB); format: cell-based; settings: Homo sapiens, leukemia, one dose 10 μM, read-out: Growth Inhibition Percentage (GI %)
[6] = test system: NCI-H322M; test: NCI-60 anticancer screening (SRB); format: cell-based; settings: Homo sapiens, NSC lung cancer, one dose 10 μM, read-out: Growth Inhibition Percentage (GI %)
[7] = test system: SW-620; test: NCI-60 anticancer screening (SRB); format: cell-based; settings: Homo sapiens; SW-620, colon cancer; one dose 10 μM; read-out: Growth Inhibition Percentage (GI %)
[8] = test system: UACC-257; test: NCI-60 anticancer screening (SRB); format: cell-based; settings: Homo sapiens; UACC-257, melanoma; one dose 10 μM; read-out: Growth Inhibition Percentage (GI %)
[9] = test system: RPMI-8226; test: NCI-60 anticancer screening (SRB); format: cell-based; settings: Homo sapiens; RPMI-8226, leukemia; one dose 10 μM; read-out: Growth Inhibition Percentage (GI %)
[10] = test system: SK-MEL-2; test: NCI-60 anticancer screening (SRB); format: cell-based; settings: Homo sapiens; SK-MEL-2, melanoma; one dose 10 μM; read-out: Growth Inhibition Percentage (GI %)
[11] = test system: SK-OV-3; test: NCI-60 anticancer screening (SRB); format: cell-based; settings: Homo sapiens; SK-OV-3, ovarian cancer; one dose 10 μM; read-out: Growth Inhibition Percentage (GI %)
[12] = test system: OVCAR-8; test: NCI-60 anticancer screening (SRB); format: cell-based; settings: Homo sapiens; OVCAR-8, ovarian cancer; one dose 10 μM; read-out: Growth Inhibition Percentage (GI %)
[13] = test system: KM 12; test: NCI-60 anticancer screening (SRB); format: cell-based; settings: Homo sapiens, KM12; KM 12, colon cancer; one dose 10 μM; read-out: Growth Inhibition Percentage (GI %)
[14] = test system: SR; test: NCI-60 anticancer screening (SRB); format: cell-based; settings: Homo sapiens, leukemia, one dose 10 μM, read-out: Growth Inhibition Percentage (GI %)
[15] = test system: A549/ATCC; test: NCI-60 anticancer screening (SRB); format: cell-based; settings: Homo sapiens; A549/ATCC, NSC lung cancer; one dose 10 μM; read-out: Growth Inhibition Percentage (GI %)
[16] = test system: NCI-H226; test: NCI-60 anticancer screening (SRB); format: cell-based; settings: Homo sapiens; NCI-H226, NSC lung cancer; one dose 10 μM; read-out: Growth Inhibition Percentage (GI %)
[17] = test system: MOLT-4; test: NCI-60 anticancer screening (SRB); format: cell-based; settings: Homo sapiens; MOLT-4, leukemia; one dose 10 μM; read-out: Growth Inhibition Percentage (GI %)
[18] = test system: OVCAR-4; test: NCI-60 anticancer screening (SRB); format: cell-based; settings: Homo sapiens; OVCAR-4, ovarian cancer; one dose 10 μM; read-out: Growth Inhibition Percentage (GI %)
[19] = test system: SK-MEL-5; test: NCI-60 anticancer screening (SRB); format: cell-based; settings: Homo sapiens; SK-MEL-5, melanoma; one dose 10 μM; read-out: Growth Inhibition Percentage (GI %)
[20] = test system: NCI 60 cancer cell lines; test: NCI-60 anticancer screening (SRB), whole panel; format: cell-based, human; settings: mean across the NCI-60 panel; one dose 10 μM
[21] = test system: K-562; test: NCI-60 anticancer screening (SRB); format: cell-based; settings: Homo sapiens, K562; K-562, leukemia; one dose 10 μM; read-out: Growth Inhibition Percentage (GI %)
[22] = test system: OVCAR-5; test: NCI-60 anticancer screening (SRB); format: cell-based; settings: Homo sapiens; OVCAR-5, ovarian cancer; one dose 10 μM; read-out: Growth Inhibition Percentage (GI %)
[23] = test system: HCC-2998; test: NCI-60 anticancer screening (SRB); format: cell-based; settings: Homo sapiens; HCC-2998, colon cancer; one dose 10 μM; read-out: Growth Inhibition Percentage (GI %)
[24] = test system: T-47D; test: NCI-60 anticancer screening (SRB); format: cell-based; settings: Homo sapiens, T47D, breast cancer, one dose 10 μM, read-out: Growth Inhibition Percentage (GI %)
[25] = test system: MDA-MB-435; test: NCI-60 anticancer screening (SRB); format: cell-based; settings: Homo sapiens; MDA-MB-435, melanoma; one dose 10 μM; read-out: Growth Inhibition Percentage (GI %)
[26] = test system: HOP-62; test: NCI-60 anticancer screening (SRB); format: cell-based; settings: Homo sapiens; HOP-62, NSC lung cancer; one dose 10 μM; read-out: Growth Inhibition Percentage (GI %)
[27] = test system: MDA-MB-468; test: NCI-60 anticancer screening (SRB); format: cell-based; settings: Homo sapiens; MDA-MB-468, breast cancer; one dose 10 μM; read-out: Growth Inhibition Percentage (GI %)
[28] = test system: SF-268; test: NCI-60 anticancer screening (SRB); format: cell-based; settings: Homo sapiens; SF-268, CNS cancer; one dose 10 μM; read-out: Growth Inhibition Percentage (GI %)
[29] = test system: SNB-75; test: NCI-60 anticancer screening (SRB); format: cell-based; settings: Homo sapiens; SNB-75, CNS cancer; one dose 10 μM; read-out: Growth Inhibition Percentage (GI %)
[30] = test system: ACHN; test: NCI-60 anticancer screening (SRB); format: cell-based; settings: Homo sapiens, renal cancer, one dose 10 μM, read-out: Growth Inhibition Percentage (GI %)
[31] = test system: RXF 393; test: NCI-60 anticancer screening (SRB); format: cell-based; settings: Homo sapiens; RXF 393, renal cancer; one dose 10 μM; read-out: Growth Inhibition Percentage (GI %)
[32] = test system: HCT-15; test: NCI-60 anticancer screening (SRB); format: cell-based; settings: Homo sapiens; HCT-15, colon cancer; one dose 10 μM; read-out: Growth Inhibition Percentage (GI %)

Row | Structure (SMILES) | inhibition at 10 µM [1] | inhibition at 10 µM [2] | inhibition at 10 µM [3] | inhibition at 10 µM [4] | inhibition at 10 µM [5] | inhibition at 10 µM [6] | inhibition at 10 µM [7] | inhibition at 10 µM [8] | inhibition at 10 µM [9] | inhibition at 10 µM [10] | inhibition at 10 µM [12] | inhibition at 10 µM [13] | inhibition at 10 µM [14] | inhibition at 10 µM [15] | inhibition at 10 µM [16] | inhibition at 10 µM [17] | inhibition at 10 µM [18] | inhibition at 10 µM [19] | GI % mean [20] | inhibition at 10 µM [21] | further results
1 | CCOC(=O)C1=C(N)N(c2ccc(Cl)cc2)C2=C(C(=O)CC(C)(C)C2)C1c1ccc(N2CCOCC2)cc1 (racemic) [8m, (±)-Ethyl 2-amino-1–(4-chlorophenyl)-7,7-dimethyl-4-[4-(morpholin-4-yl)phenyl]-5-oxo-1,4,5,6,7,8-hexahydroquinoline-3-carboxylate] | < 10% | < 10% | < 10% | 11% | < 10% | < 10% | < 10% | < 10% | < 10% | < 10% | < 10% | < 10% | < 10% | < 10% | < 10% | < 10% | < 10% | 20% | - ((-) = GI % mean less than 10) | < 10% | inhibition at 10 µM [11]: < 10%; inhibition at 10 µM [22]: < 10%; inhibition at 10 µM [23]: < 10%; inhibition at 10 µM [24]: < 10%; inhibition at 10 µM [25]: < 10%; melting point: 175 to 177 °C; inhibition at 10 µM [26]: < 10%; inhibition at 10 µM [27]: 16%; inhibition at 10 µM [28]: < 10%; inhibition at 10 µM [29]: < 10%; inhibition at 10 µM [30]: < 10%; inhibition at 10 µM [31]: < 10%; inhibition at 10 µM [32]: < 10%
2 | CCOC(=O)C1=C(N)N(c2ccc(Cl)cc2)C2=C(C(=O)CC(C)(C)C2)C1c1ccc(F)cc1 (racemic) [8b, (±)-Ethyl 2-amino-1–(4-chlorophenyl)-4–(4-fluoroyphenyl)-7,7-dimethyl-5-oxo-1,4,5,6,7,8-hexahydroquinoline-3-carboxylate] | 22% | 14% | < 10% | 40% | 32% | < 10% | < 10% | 11% | < 10% | 20% | 13% | < 10% | < 10% | 12% | < 10% | < 10% | 16% | 29% | 14% | < 10% | inhibition at 10 µM [11]: < 10%; inhibition at 10 µM [22]: < 10%; inhibition at 10 µM [23]: < 10%; inhibition at 10 µM [24]: 27%; inhibition at 10 µM [25]: 11%; melting point: 256 to 258 °C; inhibition at 10 µM [26]: < 10%; inhibition at 10 µM [27]: 17%; inhibition at 10 µM [28]: < 10%; inhibition at 10 µM [29]: < 10%; inhibition at 10 µM [30]: < 10%; inhibition at 10 µM [31]: 17%; inhibition at 10 µM [32]: 34%
3 | CCOC(=O)C1=C(N)N(c2ccccc2)C2=C(C(=O)CC(C)(C)C2)C1c1ccc([N+](=O)[O-])cc1 (racemic) [8i, (±)-Ethyl 2-amino-4–(4-nitrophenyl)-7,7-dimethyl-5-oxo-1-phenyl-1,4,5,6,7,8-hexahydroquinoline-3-carboxylate] | < 10% | 11% | < 10% | 21% | < 10% | < 10% | < 10% | < 10% | 17% | < 10% | < 10% | < 10% | 34% | < 10% | 12% | 22% | < 10% | < 10% | - ((-) = GI % mean less than 10) | 16% | inhibition at 10 µM [22]: < 10%; inhibition at 10 µM [23]: < 10%; inhibition at 10 µM [24]: < 10%; inhibition at 10 µM [25]: < 10%; melting point: 164 to 166 °C; inhibition at 10 µM [26]: < 10%; inhibition at 10 µM [27]: < 10%; inhibition at 10 µM [28]: < 10%; inhibition at 10 µM [29]: < 10%; inhibition at 10 µM [30]: 12%; inhibition at 10 µM [31]: < 10%; inhibition at 10 µM [32]: 14%
